This passage reports IC50 results from US20250304551A1 (SHANGHAI APEIRON THERAPEUTICS COMPANY LIMITED, priority 2022, published 2025).

The target of test [1] is T1, Human KIF18A (amino acid sequence 1-417) (Homo sapiens, UniProt Q8NI77).
T1 construct: purchased Viva Biotech (Shanghai) Ltd
The test is described as follows: Enzyme activity detection experiment (ADP-Glo, KIF18A with tubulin and ATP). It is filed as biochemical. The following applies: tubulin 60 μg/mL, ATP 25 μM, KIF18A protein 2.5 nM, 120 minutes at ambient temperature, ADP-Glo chemiluminescence. Put shortly: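 KIF18A (2.5 nM) was incubated with tubulin (60 μg/mL as added), ATP (25 μM) and serially diluted compound for 120 min at ambient temperature. ADP formed was detected by ADP-Glo: reagent for 30 min, then detection reagent for 30 min in the dark, with chemiluminescence read-out.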

Another test concerns OVCAR3 cells. Kind of test: Cell proliferation activity test, OVCAR3 (CyQUANT Direct). Format: cell-based. The following applies: Homo sapiens, OVCAR-3, 72 h, 3 days incubation, CyQUANT fluorescence detection, read-out: OVCAR-3 Cell Viability_IC50_nM. Put shortly:
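OVCAR3 cells seeded overnight, then exposed to compounds at 0-10 μM final (0.20% DMSO) for 3 days at 37° C. Cell number read by CyQUANT Direct fluorescence after 60 min at 37° C.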

In the next test the test system is HT29 cells. Kind of test: CyQuant cell proliferation activity test, HT29. Format: cell-based. The following applies: Homo sapiens, HT-29, 72 h, HT29 2000 cells per well, 3 days incubation, initial concentration 3000 nM, IC50 by XLFIT, read-out: HT-29 Cell Viability_IC50_nM. The method in brief: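 HT29 cells (2000/well, RPMI-1640 with 10% FBS) were plated overnight, then exposed to compound for 3 days at 37 °C, 5% CO2. Dosing was 9 concentrations, 3-fold dilutions from 3000 nM, in 0.20% DMSO. Proliferation was read with CyQuant reagent after 1 h, and IC50 derived from the curves.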

T1 sequence (Q8NI77 1-417): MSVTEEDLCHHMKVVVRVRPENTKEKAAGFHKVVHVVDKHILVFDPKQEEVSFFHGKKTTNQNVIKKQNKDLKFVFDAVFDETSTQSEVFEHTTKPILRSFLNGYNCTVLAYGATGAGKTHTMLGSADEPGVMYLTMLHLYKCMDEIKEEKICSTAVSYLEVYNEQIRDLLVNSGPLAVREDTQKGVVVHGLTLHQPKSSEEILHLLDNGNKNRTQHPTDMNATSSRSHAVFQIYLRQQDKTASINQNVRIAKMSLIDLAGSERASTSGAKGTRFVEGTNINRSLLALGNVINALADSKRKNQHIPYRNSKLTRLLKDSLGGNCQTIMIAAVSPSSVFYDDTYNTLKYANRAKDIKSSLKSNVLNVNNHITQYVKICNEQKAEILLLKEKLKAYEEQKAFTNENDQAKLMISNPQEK
T1 sequence (Q2XVP4 whole entry partner): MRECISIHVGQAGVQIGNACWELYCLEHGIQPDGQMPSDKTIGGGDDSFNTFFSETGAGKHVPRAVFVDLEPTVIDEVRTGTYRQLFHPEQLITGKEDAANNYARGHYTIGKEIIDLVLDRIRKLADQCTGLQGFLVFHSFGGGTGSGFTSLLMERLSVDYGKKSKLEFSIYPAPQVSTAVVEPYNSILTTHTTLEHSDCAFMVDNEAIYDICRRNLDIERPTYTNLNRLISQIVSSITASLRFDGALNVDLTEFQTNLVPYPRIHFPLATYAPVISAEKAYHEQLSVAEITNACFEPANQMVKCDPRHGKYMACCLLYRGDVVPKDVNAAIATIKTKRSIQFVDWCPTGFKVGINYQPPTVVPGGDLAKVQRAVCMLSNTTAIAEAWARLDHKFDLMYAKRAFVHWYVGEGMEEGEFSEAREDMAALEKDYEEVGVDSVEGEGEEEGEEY
T1 sequence (P02554 whole entry partner): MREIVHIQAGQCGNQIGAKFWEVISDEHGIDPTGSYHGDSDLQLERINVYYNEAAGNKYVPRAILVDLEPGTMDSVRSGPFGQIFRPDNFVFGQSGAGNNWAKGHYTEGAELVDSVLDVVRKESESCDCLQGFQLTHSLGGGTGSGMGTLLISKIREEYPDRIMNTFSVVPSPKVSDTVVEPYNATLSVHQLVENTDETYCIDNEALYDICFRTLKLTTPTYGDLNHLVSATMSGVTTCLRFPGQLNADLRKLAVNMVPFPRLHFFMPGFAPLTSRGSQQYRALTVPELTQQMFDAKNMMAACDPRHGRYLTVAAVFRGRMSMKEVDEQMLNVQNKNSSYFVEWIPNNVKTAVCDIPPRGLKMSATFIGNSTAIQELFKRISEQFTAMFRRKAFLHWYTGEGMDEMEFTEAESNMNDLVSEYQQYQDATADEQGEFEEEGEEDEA

In the case of `Cc1cc(-n2cc(-c3ccc(NS(=O)(=O)[C@H](C)CO)cc3N3CCC4(CC3)CC4)nn2)nc(N2CCC(F)(F)CC2)n1` [Example 92, (2R)—N-(3-{6-azaspiro[2.5]octan-6-yl}-4-{1-[2-(4,4-difluoropiperidin-1-yl)-6-methylpyrimidin-4-yl]-1H-1,2,3-triazol-4-yl}phenyl)-1-hydroxypropane-2-sulfonamide], the IC50 in test [1] was 232 nM; with OVCAR3 cells, 93 nM; in the test on HT29 cells it was 50 nM.

As for `Cc1cc(-n2cc(-c3ccc(NS(=O)(=O)[C@@H](C)CO)cc3N3CCC4(CC3)CC4)nn2)nc(N2CCC(F)(F)CC2)n1` [Example 93, (2S)—N-(3-{6-azaspiro[2.5]octan-6-yl}-4-{1-[2-(4,4-difluoropiperidin-1-yl)-6-methylpyrimidin-4-yl]-1H-1,2,3-triazol-4-yl}phenyl)-1-hydroxypropane-2-sulfonamide], the IC50 came out at 315 nM in test [1], 85 nM with OVCAR3 cells and 83 nM with HT29 cells.

As to `O=S(=O)(CCO)Nc1ccc(-c2cn(-c3cc(N4CCC(F)(F)CC4)c4ncccc4c3)nn2)c(N2CCC3(CC2)CC3)c1` [Example 94, N-(4-(1-(8-(4,4-difluoropiperidin-1-yl)quinolin-6-yl)-1H-1,2,3-triazol-4-yl)-3-(6-azaspiro[2.5]octan-6-yl)phenyl)-2-hydroxyethane-1-sulfonamide], the IC50 in test [1] came out at 227 nM; in the test with OVCAR3 cells, 92 nM; in the test with HT29 cells, 57 nM.
